Assay results from patent publication US20230212549A1, “COMPOUNDS COMPRISING A […] LIGAND AND USE THEREOF” (priority 2021, published 2023).
Numbered stars: 1 amine (or outer) side, 2 acyl side, 3 side chain; on linkers, the order of the positions; unused ones are H or OH. Bridge positions count the residues as written; N and C are the ends. Square brackets hold non-standard residues; d marks the D form. Peptide text beside a SMILES is read from it. * marks the point of attachment. TBMB(SCH2CH2NH-DOTA) = O=C(O)CN1CCN(CC(=O)O)CCN(CC(=O)NCCSCc2cc(C[*:1])cc(C[*:2])c2)CCN(CC(=O)O)CC1; X13 = O=C(O)CN1CCN(CC(=O)O)CCN(CC(=O)N2CCN(Cc3cc(C[*:1])cc(C[*:2])c3)CC2)CCN(CC(=O)O)CC1; mXylylene = c1cc(C[*:1])cc(C[*:2])c1; Pentanesulfonyl = CCCCCS(=O)(=O)*; Nphe = O=C(O)CNCc1ccccc1; Hexanoyl = CCCCCC(=O)*; Nleu = CC(C)CNCC(=O)O; Nlys = NCCCCNCC(=O)O

How the values were obtained:
Human recombinant FAP = Human recombinant FAP (Homo sapiens, UniProt Q12884); assay: FRET-based FAP protease activity assay; format: biochemical; design: purchased R&D systems 3715-SE; conditions: pIC50 Category (Activity), 37° C.
Chain of Human recombinant FAP (Q12884 whole entry): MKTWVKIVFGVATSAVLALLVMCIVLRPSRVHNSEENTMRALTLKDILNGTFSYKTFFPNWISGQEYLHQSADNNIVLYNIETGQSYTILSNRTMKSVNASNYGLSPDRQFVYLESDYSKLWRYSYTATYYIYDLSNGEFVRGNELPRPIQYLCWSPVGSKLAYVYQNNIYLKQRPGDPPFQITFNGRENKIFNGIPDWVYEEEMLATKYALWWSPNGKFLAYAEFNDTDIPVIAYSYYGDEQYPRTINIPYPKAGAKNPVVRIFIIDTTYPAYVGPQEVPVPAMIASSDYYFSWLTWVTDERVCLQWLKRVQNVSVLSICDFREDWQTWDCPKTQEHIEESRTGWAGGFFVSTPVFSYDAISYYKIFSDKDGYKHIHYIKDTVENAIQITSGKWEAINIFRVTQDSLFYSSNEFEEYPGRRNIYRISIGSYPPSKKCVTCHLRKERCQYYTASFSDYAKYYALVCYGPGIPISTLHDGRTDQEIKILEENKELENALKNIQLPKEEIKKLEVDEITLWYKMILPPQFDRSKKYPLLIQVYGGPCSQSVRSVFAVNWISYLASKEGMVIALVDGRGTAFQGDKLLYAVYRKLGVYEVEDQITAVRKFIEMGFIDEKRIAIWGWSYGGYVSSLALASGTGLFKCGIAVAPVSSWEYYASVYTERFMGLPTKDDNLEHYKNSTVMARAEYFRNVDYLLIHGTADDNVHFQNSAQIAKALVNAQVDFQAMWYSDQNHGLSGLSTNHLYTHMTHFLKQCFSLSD

[1] = biological target: T1, FAP-expressing human WI-38 fibroblasts (Homo sapiens, UniProt Q12884); assay: Competitive FACS binding assay
T1 construct: FAP-expressing human WI-38 fibroblasts (ECACC) were cultured in EMEM; host or cells: WI-38 human fibroblasts
T1 sequence (Q12884 whole entry): as above
Protocol: Cells were analyzed in an Attune NxT flow cytometer. […] […].
Cells were analyzed in an Attune NxT flow cytometer. […]

[2] = FRET-based FAP protease activity assay, recombinant human FAP

| Compound | IC50 (Human recombinant FAP; [2]) [nM] | IC50 [1] [nM] | IC50 (Human recombinant FAP; FRET-peptide substrate) [nM] |
| --- | --- | --- | --- |
| CCCCCS(=O)(=O)N[C@H]1CSCc2cc(CSCCNC(=O)CN3CCN(CC(=O)O)CCN(CC(=O)O)CCN(CC(=O)O)CC3)cc(c2)CSC[C@@H](C(=O)O)NC(=O)[C@H](Cc2ccccc2)NC(=O)[C@H](CCC(=O)O)NC(=O)[C@H]([C@@H](C)O)NC(=O)[C@@H]2CCCN2C(=O)[C@@H]2CCCN2C1=O [3BP-3691, Pentyl-SO2-[Cys(tMeBn(DOTA-AET))-Pro-Pro-Thr-Glu-Phe-Cys]-OH] (Pentanesulfonyl-CPPTEFC-OH; linker 1-7 via TBMB(SCH2CH2NH-DOTA)) | 10 to 79.4 | < 10 |  |
| CCCCCC(=O)N[C@H]1CSCc2cc(cc(CN3CCN(C(=O)CN4CCN(CC(=O)O)CCN(CC(=O)O)CCN(CC(=O)O)CC4)CC3)c2)CSC[C@@H](C(=O)N[C@@H](CC(=O)O)C(N)=O)NC(=O)[C@H](Cc2ccccc2)NC(=O)[C@H](C)NC(=O)[C@H]([C@@H](C)O)NC(=O)[C@@H]2CCCN2C(=O)[C@@H]2CCCN2C1=O [3BP-3739, Hex-[Cys(tMeBn(DOTA-PP))-Pro-Pro-Thr-Ala-Phe-Cys]-Asp-NH2] (Hexanoyl-CPPTAFCD-NH2; linker 1-7 via X13) | 100 to 794 | 100 to 794 |  |
| CCCCCC(=O)N[C@H]1CSCc2cc(cc(CN3CCN(C(=O)CN4CCN(CC(=O)O)CCN(CC(=O)O)CCN(CC(=O)O)CC4)CC3)c2)CSC[C@@H](C(=O)N[C@@H](CC(=O)O)C(N)=O)NC(=O)[C@H](Cc2ccccc2)NC(=O)[C@H](CCC(N)=O)NC(=O)[C@H](C)NC(=O)[C@@H]2CCCN2C(=O)[C@@H]2CCCN2C1=O [3BP-3745, Hex-[Cys(tMeBn(DOTA-PP))-Pro-Pro-Ala-Gln-Phe-Cys]-Asp-NH2] (Hexanoyl-CPPAQFCD-NH2; linker 1-7 via X13) | 100 to 794 | 100 to 794 |  |
| CCCCCC(=O)N[C@H]1CSCc2cc(cc(CN3CCN(C(=O)CN4CCN(CC(=O)O)CCN(CC(=O)O)CCN(CC(=O)O)CC4)CC3)c2)CSC[C@@H](C(=O)N[C@@H](CC(=O)O)C(N)=O)NC(=O)[C@H](Cc2ccccc2)NC(=O)[C@H](C)NC(=O)[C@H](C)NC(=O)[C@@H]2CCCN2C(=O)[C@@H]2CCCN2C1=O [3BP-3746, Hex-[Cys(tMeBn(DOTA-PP))-Pro-Pro-Ala-Ala-Phe-Cys]-Asp-NH2] (Hexanoyl-CPPAAFCD-NH2; linker 1-7 via X13) | 100 to 794 | > 1000 |  |
| CCCCCC(=O)N[C@H]1CSCc2cccc(c2)CSC[C@@H](C(N)=O)NC(=O)[C@H](Cc2ccccc2)NC(=O)[C@H](CCC(N)=O)NC(=O)[C@H]([C@@H](C)O)NC(=O)[C@@H]2CCCN2C(=O)CN(CCCCN)C1=O [3BP-3747, Hex-[Cys(3MeBn)-Nlys-Pro-Thr-Gln-Phe-Cys]-NH2] (Hexanoyl-C[Nlys]PTQFC-NH2; linker 1-7 via mXylylene) | > 1000 | > 1000 |  |
| CCCCCC(=O)N[C@H]1CSCc2cccc(c2)CSC[C@@H](C(N)=O)NC(=O)[C@H](Cc2ccccc2)NC(=O)[C@H](CCC(N)=O)NC(=O)[C@H]([C@@H](C)O)NC(=O)[C@@H]2CCCN2C(=O)CN(Cc2ccccc2)C1=O [3BP-3748, Hex-[Cys(3MeBn)-Nphe-Pro-Thr-Gln-Phe-Cys]-NH2] (Hexanoyl-C[Nphe]PTQFC-NH2; linker 1-7 via mXylylene) | > 1000 | > 1000 |  |
| CCCCCC(=O)N[C@H]1CSCc2cccc(c2)CSC[C@@H](C(N)=O)NC(=O)[C@H](Cc2ccccc2)NC(=O)[C@H](CCC(N)=O)NC(=O)[C@H]([C@@H](C)O)NC(=O)[C@@H]2CCCN2C(=O)CN(CC(C)C)C1=O [3BP-3749, Hex-[Cys(3MeBn)-Nleu-Pro-Thr-Gln-Phe-Cys]-NH2] (Hexanoyl-C[Nleu]PTQFC-NH2; linker 1-7 via mXylylene) | > 1000 | > 1000 |  |
| C[C@@H](O)[C@@H]1NC(=O)[C@@H]2CCCN2C(=O)[C@@H]2CCCN2C(=O)[C@@H](NC(=O)CCCCCN)CSCc2cccc(c2)CSC[C@@H](C(N)=O)NC(=O)[C@H](Cc2ccccc2)NC(=O)[C@H](CCC(N)=O)NC1=O [3BP-3759, H-Ahx-[Cys(3MeBn)-Pro-Pro-Thr-Gln-Phe-Cys]-NH2] | > 1000 | > 1000 |  |
| C[C@@H](O)[C@@H]1NC(=O)[C@@H]2CCCN2C(=O)[C@@H]2CCCN2C(=O)[C@@H](NC(=O)CCCCN)CSCc2cccc(c2)CSC[C@@H](C(N)=O)NC(=O)[C@H](Cc2ccccc2)NC(=O)[C@H](CCC(N)=O)NC1=O [3BP-3760, H-Ava-[Cys(3MeBn)-Pro-Pro-Thr-Gln-Phe-Cys]-NH2] | > 1000 | > 1000 |  |
| C[C@@H](O)[C@@H]1NC(=O)[C@@H]2CCCN2C(=O)[C@@H]2CCCN2C(=O)[C@@H](NC(=O)CCCN)CSCc2cccc(c2)CSC[C@@H](C(N)=O)NC(=O)[C@H](Cc2ccccc2)NC(=O)[C@H](CCC(N)=O)NC1=O [3BP-3761, H-Gab-[Cys(3MeBn)-Pro-Pro-Thr-Gln-Phe-Cys]-NH2] | > 1000 | > 1000 |  |
| C[C@@H](O)[C@@H]1NC(=O)[C@@H]2CCCN2C(=O)[C@@H]2CCCN2C(=O)[C@@H](NC(=O)Cc2ccncc2)CSCc2cccc(c2)CSC[C@@H](C(N)=O)NC(=O)[C@H](Cc2ccccc2)NC(=O)[C@H](CCC(N)=O)NC1=O [3BP-3762, 4Pya-[Cys(3MeBn)-Pro-Pro-Thr-Gln-Phe-Cys]-NH2] | 100 to 794 | > 1000 |  |
| CC(=O)N[C@@H](CCO)C(=O)N[C@H]1CSCc2cccc(c2)CSC[C@@H](C(N)=O)NC(=O)[C@H](Cc2ccccc2)NC(=O)[C@H](CCC(N)=O)NC(=O)[C@H]([C@@H](C)O)NC(=O)[C@@H]2CCCN2C(=O)[C@@H]2CCCN2C1=O [3BP-3763, Ac-Hse-[Cys(3MeBn)-Pro-Pro-Thr-Gln-Phe-Cys]-NH2] | 100 to 794 | > 1000 |  |
| CC(=O)N[C@@H](CCCC(=O)O)C(=O)N[C@H]1CSCc2cccc(c2)CSC[C@@H](C(N)=O)NC(=O)[C@H](Cc2ccccc2)NC(=O)[C@H](CCC(N)=O)NC(=O)[C@H]([C@@H](C)O)NC(=O)[C@@H]2CCCN2C(=O)[C@@H]2CCCN2C1=O [3BP-3764, Ac-Aad-[Cys(3MeBn)-Pro-Pro-Thr-Gln-Phe-Cys]-NH2] | > 1000 | > 1000 |  |
| C[C@@H](O)[C@@H]1NC(=O)[C@@H]2CCCN2C(=O)[C@@H]2CCCN2C(=O)[C@@H](NC(=O)CCCC(=O)O)CSCc2cccc(c2)CSC[C@@H](C(N)=O)NC(=O)[C@H](Cc2ccccc2)NC(=O)[C@H](CCC(N)=O)NC1=O [3BP-3765, HO-Glutar-[Cys(3MeBn)-Pro-Pro-Thr-Gln-Phe-Cys]-NH2] | 100 to 794 | 100 to 794 |  |
| CCCCCC(=O)N[C@H]1CSCc2cc(cc(CN3CCN(C(=O)CN4CCN(CC(=O)O)CCN(CC(=O)O)CCN(CC(=O)O)CC4)CC3)c2)CSC[C@@H](C(=O)N[C@@H](CC(=O)O)C(N)=O)NC(=O)[C@H](CCC(N)=O)NC(=O)[C@H](Cc2ccccc2)NC(=O)[C@@H]2CCCN2C(=O)[C@H]([C@@H](C)O)NC(=O)[C@@H]2CCCN2C1=O [3BP-3854, Hex-[Cys(tMeBn(DOTA-PP))-Pro-Thr-Pro-Phe-Gln-Cys]-Asp-NH2] (Hexanoyl-CPTPFQCD-NH2; linker 1-7 via X13) | > 1000 | > 1000 |  |
| CCCCCC(=O)N[C@H]1CSCc2cc(cc(CN3CCN(C(=O)CN4CCN(CC(=O)O)CCN(CC(=O)O)CCN(CC(=O)O)CC4)CC3)c2)CSC[C@@H](C(=O)N[C@@H](CC(=O)O)C(N)=O)NC(=O)[C@@H]2CCCN2C(=O)[C@@H]2CCCN2C(=O)[C@H]([C@@H](C)O)NC(=O)[C@H](CCC(N)=O)NC(=O)[C@H](Cc2ccccc2)NC1=O [3BP-3855, Hex-[Cys(tMeBn(DOTA-PP))-Phe-Gln-Thr-Pro-Pro-Cys]-Asp-NH2] (Hexanoyl-CFQTPPCD-NH2; linker 1-7 via X13) | > 1000 | > 1000 |  |
| CCCCCC(=O)N[C@H]1CSCc2cc(cc(CN3CCN(C(=O)CN4CCN(CC(=O)O)CCN(CC(=O)O)CCN(CC(=O)O)CC4)CC3)c2)CSC[C@@H](C(=O)N[C@@H](CC(=O)O)C(N)=O)NC(=O)[C@@H]2CCCN2C(=O)[C@H](Cc2ccccc2)NC(=O)[C@@H]2CCCN2C(=O)[C@H](CCC(N)=O)NC(=O)[C@H]([C@@H](C)O)NC1=O [3BP-3856, Hex-[Cys(tMeBn(DOTA-PP))-Thr-Gln-Pro-Phe-Pro-Cys]-Asp-NH2] (Hexanoyl-CTQPFPCD-NH2; linker 1-7 via X13) | > 1000 | > 1000 |  |
| CCCCCC(=O)N[C@H]1CSCc2cc(cc(CN3CCN(C(=O)CN4CCN(CC(=O)O)CCN(CC(=O)O)CCN(CC(=O)O)CC4)CC3)c2)CSC[C@@H](C(=O)N[C@@H](CC(=O)O)C(N)=O)NC(=O)[C@H]([C@@H](C)O)NC(=O)[C@@H]2CCCN2C(=O)[C@H](Cc2ccccc2)NC(=O)[C@H](CCC(N)=O)NC(=O)[C@@H]2CCCN2C1=O [3BP-3857, Hex-[Cys(tMeBn(DOTA-PP))-Pro-Gln-Phe-Pro-Thr-Cys]-Asp-NH2] (Hexanoyl-CPQFPTCD-NH2; linker 1-7 via X13) | 100 to 794 | 100 to 794 |  |
| C[C@@H](O)[C@@H]1NC(=O)[C@@H]2CCCN2C(=O)[C@@H]2CCCN2C(=O)[C@@H](NC(=O)CCCS(N)(=O)=O)CSCc2cccc(c2)CSC[C@@H](C(N)=O)NC(=O)[C@H](Cc2ccccc2)NC(=O)[C@H](CCC(N)=O)NC1=O [3BP-3860, H2NSO2-But-[Cys(3MeBn)-Pro-Pro-Thr-Gln-Phe-Cys]-NH2] | > 1000 | > 1000 |  |
| C[C@@H](O)[C@@H]1NC(=O)[C@@H]2CCCN2C(=O)[C@@H]2CCCN2C(=O)[C@@H](NC(=O)C2CCCCC2)CSCc2cc(CSCCNC(=O)CN3CCN(CC(=O)O)CCN(CC(=O)O)CCN(CC(=O)O)CC3)cc(c2)CSC[C@@H](C(=O)O)NC(=O)[C@H](Cc2ccccc2)NC(=O)[C@H](CCC(N)=O)NC1=O [3BP-3908, Chex-[Cys(tMeBn(DOTA-AET))-Pro-Pro-Thr-Gln-Phe-Cys]-OH] |  | 100 to 794 | 100 to 794 |
| C[C@@H](O)[C@@H]1NC(=O)[C@@H]2CCCN2C(=O)[C@@H]2CCCN2C(=O)[C@@H](NC(=O)C2CCCC2)CSCc2cc(CSCCNC(=O)CN3CCN(CC(=O)O)CCN(CC(=O)O)CCN(CC(=O)O)CC3)cc(c2)CSC[C@@H](C(=O)O)NC(=O)[C@H](Cc2ccccc2)NC(=O)[C@H](CCC(N)=O)NC1=O [3BP-3909, Cp-[Cys(tMeBn(DOTA-AET))-Pro-Pro-Thr-Gln-Phe-Cys]-OH] |  | 10 to 79.4 | 10 to 79.4 |
